Test [1] deals with Col1a1 expression in CD148-deficient (Ptprj−/−) lung fibroblasts. The experiment in a line: Col1a1 qPCR in CD148-deficient lung fibroblasts with NF-κB inhibitor. It is filed as cell-based, mouse. Particulars: CD148-deficient cells, TGF-β1 10 ng/ml; Bay 11-7082 10 μM. How it is done: FIG. 4. CD148 deficiency enhances PI3K/Akt/mTOR signaling which results in enhanced NF-κB activation in lung fibroblasts. (A) WT and Ptprj−/− cells were stimulated with TGF-β1 (10 ng/ml) for 24 h. Cells were lysed and p-IKKα/β, p-IκB and IκB were measured by western blot (n=4). GAPDH was the standard. Bar graphs at right are the quantitation of corresponding proteins. (B) WT and Ptprj−/− cells were stimulated with TGF-β1 (10 ng/ml) for 24 h. Cells were subjected to cytosol and nuclear protein fractionation. The p65 (NF-κB subunit) nuclear translocation was measured by western blot (n=3). β-actin and PCNA were used as cytosolic and nuclear markers, respectively. Bar graphs at right are the quantitation of corresponding proteins. p65 cytosolic/nuclear ratio is shown (far right). Data are mean±s.e.m. *P<0.05, by Kurskal-Wallis non-parametric test (C-D) WT or Ptprj−/− cells were transfected with scr or shp62 (lentivirus). Cells were stimulated with TGF-β1 (10 ng/ml) in the presence or absence or wortmannin (wort, 50 nM) or rapamycin (rapa, 1 μM). At 24 h cells were harvested and subjected to qPCR for Col1a1 or Acta2 (n=5). […] Luciferase activity were measured as described in methods (n=4 or 7). […] (F) WT or Ptprj−/− cells were stimulated with TGF-β1 (10 ng/ml) in the presence or absence of the NF-κB inhibitor Bay 11-7082 (10 μM). mRNA levels of Col1a1 were measured by qPCR (n=5 for each condition). […]
(In general: Quantitative PCR measures a nucleic acid by following its amplification.)

In test [2] the test system is α-SMA in CD148-deficient (Ptprj−/−) lung fibroblasts. Briefly: α-SMA western blot in CD148-deficient lung fibroblasts with PI3K/mTOR inhibitors. It is filed as cell-based, mouse. The conditions noted are these: CD148-deficient cells, TGF-β1 10 ng/ml; wortmannin 50 nM or rapamycin 1 μM, 24 h. As to the method: FIG. 3. CD148 deficiency enhances PI3K/Akt/mTOR signaling which results in low autophagy, high p62 expression in lung fibroblasts. (A) Mouse lung fibroblasts were isolated from Ptprj^fl/fl Col1a2^Cre-ER(T)+/0 mice (Ptprj−/−) and Col1a2^Cre-ER(T)+/0 mice (WT) and then treated with 4-OHT (1 μM) for 24 h. After 4-OHT treatment, cells were exposed to TGF-β1 (10 ng/ml) for 24 h. After stimulation, cells were harvested, and the expression of p-p85 (Tyr458), p-Akt (Ser473), pmTOR (Ser2448), p-p70 S6 kinase (Thr389), p-S6 ribosomal protein (Ser235/236) and CD148 (n=4 for each condition) in lysates was determined by Western immunoblotting and corresponding densitometry (ImageJ software). Data were normalized to corresponding dephospho-forms or GAPDH. (B) WT and Ptprj−/− cells were stimulated with TGF-β1 (10 ng/ml) for 24 h. Then cells were lysed and LC3-I and -II and p62 were measured by western blot (n=4). […] Then, autophagy flux was measured by LC3-II accumulation in the absence or presence of lysosomal acidification inhibitor chloroquine (25 μM) at 2, 4 and 6 h (n=4). […] LC3 puncta positive cells were quantified using ImageJ (D). […]
Polyacrylamide gel electrophoresis and immunoblotting were performed according to standard methods. […] The signals were detected by ECL (Thermo Fisher Scientific, Waltham, MA). […]

Test [3] concerns IPF-derived lung fibroblasts. Briefly: FasL-induced cell death (MTT cell viability). It is filed as cell-based, human. Particulars: FasL 100 and 200 ng/ml, 24 h. As to the method: FIG. 1. […] (A) CD148 protein expression levels were determined in lung homogenates from control (n=5) and IPF (n=5) patients. (Graphic) Densitometry (by ImageJ software). (B) Lung specimens from control (n=9) and IPF (n=10) patients were homogenized and subjected to total RNA isolation. Ptprj (CD148) mRNA levels were assessed using qPCR. (C) Single cell suspensions of control (n=6) and IPF (n=7) were enriched for fibroblasts. mRNA expression of CD148 in fibroblast-enriched cell populations were assessed using qPCR. (D) Representative fluorescence microscopy images of CD148 (Cy3, red), Vimentin (GFP, green) and DAPI (blue) in control (n=4) and IPF lung tissue (n=5). Scale bar=100 μm. […] CD148 fluorescence intensity was quantified by ImageJ. […] (E) CD148 protein levels were measured by western blot (n=3). (F) mRNA levels of fibronectin (Fn) and Collagen 1a1 (Col1a1) were measured using qPCR (n=5). […] After treatment, cell viability was determined using the MTT assay (n=5). […] Clusters labeled as fibroblast and myofibroblast were extracted from our previously published scRNA-seq data set and analysed using R-program. […] P values were calculated by Mann-Whitney unpaired test. (L) mRNA expression of CD148 in sorted AT1 and AT2 cells were assessed using qPCR. […] After treatment, cell viability was assessed with the MTT assay (n=4). […]
FIG. 6. […] (B) mRNA levels of Fn and Col1a1 were measured by qPCR (n=5). […]

As for `Cc1ccc(S(=O)(=O)/C=C/C#N)cc1` [Bay 11-7082], the “TGF-β1-dependent increase in Col1a1 expression” value in test [1] is listed as “inhibited”. For `CO[C@H]1C[C@@H]2CC[C@@H](C)[C@@](O)(O2)C(=O)C(=O)N2CCCC[C@H]2C(=O)O[C@H]([C@H](C)C[C@@H]2CC[C@@H](O)[C@H](OC)C2)CC(=O)[C@H](C)/C=C(\C)[C@@H](O)[C@@H](OC)C(=O)[C@H](C)C[C@H](C)/C=C/C=C/C=C/1C` [rapamycin], the “increase of a-SMA in response to TGF-β1” value in test [2] is “attenuated”. The same measure, in the same setting: next, `COC[C@H]1OC(=O)c2coc3c2[C@@]1(C)C1=C(C3=O)[C@@H]2CCC(=O)[C@@]2(C)C[C@H]1OC(C)=O` [wortmannin]: “attenuated”.

B1: FasL: Soluble recombinant human FasL (protein, UniProt P48023 103-281, looked up)
extracellular domain: QLFHLQKELAELRESTSQMHTASSLEKQIGHPSPPPEKKELRKVAHLTGKSNSRSMPLEWEDTYGIVLLSGVKYKKGGLVINETGLYFVYSKVYFRGQSCNNLPLSHKVYMRNSKYPQDLVMMEGKMMSYCTTGQMWARSSYLGAVFNLTSADHLYVNVSELSLVNFEESQTFFGLYKL
modifications: extracellular domain soluble recombinant
On to B1, for which, in test [3], the “cell death induced by Fas ligand” value is listed as “resistant to cell death”.
